Test results published in PMC10747733, “N-Substituted 2-(Benzenosulfonyl)-1-Carbotioamide Derivatives Exert Antimicrobial and Cytotoxic Effects via Aldehyde Dehydrogenase Pathway: Synthesis, In Silico and In Vitro Studies” (Pharmaceuticals, 2023).
Several values for one entry are separate records, joined by “and”; a condition that tells them apart may be missing. Equal entries are not always repeated.

Key:
in vitro = type: cell-based, sheep; conditions: sheep
Method: The toxicity of WZ1–WZ4 compounds towards red blood cells was tested using the erythrocyte lysis assay (ELA). Erythrocytes from fresh sheep blood (BioMaxima S.A., Poland) were centrifuged and washed with 0.85% NaCl. Next, 100 μL of a 2% suspension of red blood cells in physiological saline was added to the wells of microtiter plate. The double dilutions of compounds WZ1–WZ4 were prepared in the range of 2000–15.62 μg/mL. Appropriate controls were used to assess the hemolytic potential of tested compounds, i.e., 100% lysis of erythrocytes using 4% Triton X-100 (Pol-Aura, Różnowo, Poland) and 0% lysis in saline solution. Next, all sample plates were incubated (1 h at 37 °C), centrifuged for 10 min to separate unlysed red blood cells, and the supernatant was placed in a new plate. The ELA is a biological test by which the lytic response can be measured spectrophotometrically (at a wavelength of 450 nm) by the amount of hemoglobin released. The hemolysis percentage was calculated according to the following equation:(1) % Hemolysis = A450 of test compound treated sample − A450 of buffer treated sample/A450 of 4% Triton X100 treated samples − A450 of buffer treated sample × 100

[1] = tested on: 769-P (renal cell carcinoma); assay: MTT antiproliferative activity assay; type: cell-based, human; conditions: for decrease in viability: 769-P; for TI after 24h / TI after 48h: IC50 WS1 / IC50 769-P
Method: (§1) Cancer cell lines originating from different organs, i.e., AGS (stomach—gastric adenocarcinoma), HepG2 (hepatocellular carcinoma), Du145, PC3 (prostate cancer), 769-P (renal cell carcinoma) and physiology cell line WS1 (fibroblasts), were purchased from ATCC. The cell cultures were carried out in an appropriate medium (DMEM or MEM) containing 10% heat-inactivated FBS with penicillin (100 U/mL) and streptomycin (100 U/mL). The cells were kept in a humidified incubator at 37 °C and 5% CO2 and passaged three times before experimenting.
(§2) The antiproliferative properties test for each cancer line was performed in 96-well plates, in which cells with a density of 2 × 10^4 were seeded in 100 µL of medium containing 10% FBS. After 24 h of allowing the cells to attach, the wells were washed with DPBS (Dulbecco’s phosphate-buffered saline) solution and the cells were incubated in fresh medium w/o FBS containing 1 µM, 10 µM, 50 µM, 200 µM or 500 µM of the tested compounds for 24 and 48 h. All substances were first dissolved in DMSO to prepare stock solutions that were then diluted in the medium to obtain a maximum of 0.1% w/v DMSO in the final solution. Each concentration was tested in triplicate. DMSO at a concentration of 0.1% in the medium was also used as a negative control. The antiproliferative activity of the compounds was tested using the MTT test. After each incubation time, the medium containing the test compounds and the negative control was removed, the cells were washed with DPBS solution, and then 100 µL of FBS-free and antibiotic-free fresh medium containing 0.5 mg/mL MTT was added to each well. The plates were incubated for 3 h in an incubator at 37 °C and 5% CO2. After incubation, the medium was removed, the cells were washed with 100 µL of PBS, and 100 µL of DMSO was added to each well to dissolve the purple formazan. The plate was shaken for 3 min and the absorbance was read at 570 nm (BioTek Synergy H1 microplate reader). Cell viability was calculated from the mean of the OD readings. Based on the dose–response curve, IC50 values were calculated (MS Excel). […] Therapeutic index (TI) results were calculated as the ratio of the IC50 of physiological cells to the IC50 of tumor cells.

[2] = tested on: AGS (gastric adenocarcinoma); assay: MTT antiproliferative activity assay; type: cell-based, human; conditions: for decrease in viability: AGS; for TI after 24h / TI after 48h: IC50 WS1 / IC50 AGS
Method: as §1, §2

Du145 (prostate cancer) = assay: MTT antiproliferative activity assay; type: cell-based, human; conditions: for concentration at which a statistically significant decrease in viability was observed: tested 1–500 µM; for TI after 24h / TI after 48h: IC50 WS1 / IC50 DU145
Method: as §1, §2

[3] = tested on: HepG2 (hepatocellular carcinoma); assay: MTT antiproliferative activity assay; type: cell-based, human; conditions: for TI after 24h / TI after 48h: IC50 WS1 / IC50 HepG2
Method: as §1, §2

PC3 (prostate cancer) = assay: MTT antiproliferative activity assay; type: cell-based, human; conditions: for TI after 24h / TI after 48h: IC50 WS1 / IC50 PC3
Method: as §1, §2

WS1 (fibroblasts) = assay: MTT antiproliferative activity assay; type: cell-based, human; conditions: for concentration at which a statistically significant decrease in viability was observed: tested 1–500 µM
Method: as §1, §2

| Structure (SMILES) | hemolysis at 1 h, 15.62 μg/mL (in vitro) | hemolysis at 1 h, 31.25 μg/mL (in vitro) | hemolysis at 1 h, 62.5 μg/mL (in vitro) | hemolysis at 1 h, 125 μg/mL (in vitro) | hemolysis at 1 h, 250 μg/mL (in vitro) | hemolysis at 1 h, 500 μg/mL (in vitro) | hemolysis at 1 h, 1000 μg/mL (in vitro) | hemolysis at 1 h, 2000 μg/mL (in vitro) | decrease in viability ([1]; 24 h, 1 µM) | decrease in viability ([1]; 48 h, 1 µM) | TI after 24h ([1]; 24 h) | TI after 48h ([1]; 48 h) | decrease in viability ([2]; 24 h, 1 µM) | TI after 24h ([2]; 24 h) | TI after 48h ([2]; 48 h) | TI after 24h (Du145 (prostate cancer); 24 h) | TI after 48h (Du145 (prostate cancer); 48 h) | decrease in viability ([3]; HepG2, 24 h, 200 µM) | TI after 24h (PC3 (prostate cancer); 24 h) | concentration at which a statistically significant decrease in viability was observed (WS1 (fibroblasts); 24 h) | also measured |
| --- | --- | --- | --- | --- | --- | --- | --- | --- | --- | --- | --- | --- | --- | --- | --- | --- | --- | --- | --- | --- | --- |
| O=S(=O)(NNC(=S)NC1CCCCC1)c1ccccc1 [WZ1, 2-(Benzenesulfonyl)-N-Cyclohexylhydrazine-1-Carbothioamide] | 0% | 0% | 0% | 2.11% | 7.89% | 14.2% | 18.4% | 34.7% | ~ 11% | ~ 15% | 22.712 | 7.757 | ~ 16% | 14.043 | 0.952 | 16.001 | 0.170 | ~ 15% | 18.426 | 200 µM | decrease in viability ([2]; 48 h, 50 µM): ~ 6%; decrease in viability (Du145 (prostate cancer); Du145, 24 h, 1 µM): ~ 7%; concentration at which a statistically significant decrease in viability was observed (Du145 (prostate cancer); Du145, 48 h): 200 µM; decrease in viability ([3]; HepG2, 48 h, 10 µM): ~ 7%; TI after 24h ([3]; 24 h): 0.003; TI after 48h ([3]; 48 h): 7.442; TI after 48h (PC3 (prostate cancer); 48 h): 1.521; decrease in viability (PC3 (prostate cancer); PC3, 24 h, 50 µM): ~ 11%; concentration at which a statistically significant decrease in viability was observed (PC3 (prostate cancer); PC3, 48 h, tested 1–500 µM): 10 µM; concentration at which a statistically significant decrease in viability was observed (WS1 (fibroblasts); 48 h): 200 µM |
| CCCCNC(=S)NNS(=O)(=O)c1ccccc1 [WZ2, 2-(Benzenesulfonyl)-N-Butylhydrazine-1-Carbothioamide] | 0% | 0% | 0% | 3.15% | 8.95% | 19.5% | 27.9% | 36.8% | ~ 8% | ~ 10% | 753,464,970.626 | 67,951.475 | ~ 8% | 1,905,977,431.260 | 0.368 | 2,352,384.152 | 28.982 |  | 289,230,463.397 | no reduction in viability | decrease in viability ([2]; 48 h, 1 µM): ~ 6%; viability at 50 µM (Du145 (prostate cancer); Homo sapiens, DU-145, Du145, 24 h, 50 µM, read-out: viability (dropped to)): ~80%; viability at 1 µM (Du145 (prostate cancer); Homo sapiens, DU-145, Du145, 48 h, 1 µM, read-out: viability (dropped to)): ~92%; decrease in viability ([3]; HepG2, 24 h, 500 µM): ~ 22%; viability (decreased to) ([3]; HepG2, 48 h, 1 µM): ~ 82%; TI after 24h ([3]; 24 h): 205,540,220.291; TI after 48h ([3]; 48 h): 15,880.957; TI after 48h (PC3 (prostate cancer); 48 h): 224,184.286; viability (reduced to) (PC3 (prostate cancer); PC3, 24 h, 200 µM): ~ 82%; viability (reduced to) (PC3 (prostate cancer); PC3, 48 h, 50 µM): ~ 88%; decrease in viability (WS1 (fibroblasts); 48 h, 200 µM): ~ 17%; decrease in viability (WS1 (fibroblasts); 48 h, 500 µM): ~ 23% |
| CCCCCCNC(=S)NNS(=O)(=O)c1ccccc1 [WZ3, 2-(Benzenesulfonyl)-N-Hexylhydrazine-1-Carbothioamide] | 0% | 0% | 0% | 1.14% | 11.4% | 18.2% | 43.2% | 85.8% | ~ 22% | ~ 48% | 0.078 | 115.134 | ~ 9% | 1.169 | 1.284 | 0.476 |  | ~ 31% | 2.291 | 1 to 500 µM | decrease in viability ([1]; 24 h, 200 µM): ~ 22%; decrease in viability ([2]; 48 h, 1 µM): ~ 9%; decrease in viability (Du145 (prostate cancer); Du145, 24 h, 200 µM): ~ 19%; decrease in viability (Du145 (prostate cancer); Du145, 48 h, 50 µM): ~ 6%; decrease in viability ([3]; HepG2, 48 h, 1 µM): ~ 7%; TI after 24h ([3]; 24 h): 1.701; TI after 48h ([3]; 48 h): 2.426; viability (reduced to) (PC3 (prostate cancer); PC3, 24 h, 50 µM): ~ 76%; decrease in viability (PC3 (prostate cancer); PC3, 48 h, 200 µM): ~ 11%; decrease in viability (WS1 (fibroblasts); 24 h, 1 µM): ~ 12%; decrease in viability (WS1 (fibroblasts); 48 h, 500 µM): ~ 64%; concentration at which a statistically significant decrease in viability was observed (WS1 (fibroblasts); 48 h): no significant change in viability |
| CNC(=S)NNS(=O)(=O)c1ccccc1 [WZ4, 2-(Benzenesulfonyl)-N-Methylhydrazine-1-Carbothioamide] | 0% | 0% | 0% | 3.16% | 15.8% | 45.3% | 88.4% | 100% |  | ~ 16% | 1.653 | 15.763 | ~ 7% | 4.537 | 7.390 |  | 1.272 and > 1 | ~ 18% | 0.920 and < 1 | 1 to 500 µM | decrease in viability ([1]; 24 h, across 10–500 µM): 21–56%; decrease in viability ([1]; 48 h, across 1–500 µM): 16–82%; decrease in viability ([2]; 24 h, across 1–500 µM): 7–84%; decrease in viability ([2]; 48 h, 1 µM): ~ 12%; decrease in viability ([2]; 48 h, across 1–500 µM): 12–92%; decrease in viability (Du145 (prostate cancer); DU145, 48 h, 1 µM): ~ 10%; decrease in viability (Du145 (prostate cancer); Du145, 24 h, 1 µM): ~ 10%; concentration at which a statistically significant decrease in viability was observed (Du145 (prostate cancer); Du145, 24 h): 1 to 500 µM; concentration at which a statistically significant decrease in viability was observed (Du145 (prostate cancer); Du145, 48 h): 1 to 500 µM; decrease in viability ([3]; HepG2, 24 h, 1 µM): ~ 4%; decrease in viability ([3]; HepG2, 48 h, 1 µM): ~ 3%; viability (reduced to) ([3]; HepG2, 48 h, 50 µM): ~ 69%; decrease in viability (PC3 (prostate cancer); PC3, 24 h, 50 µM): ~ 27%; decrease in viability (PC3 (prostate cancer); PC3, 48 h, 200 µM): ~ 32%; decrease in viability (WS1 (fibroblasts); 24 h, all concentrations tested (1–500 µM)): 10–52%; decrease in viability (WS1 (fibroblasts); 48 h, 200 µM): ~ 15% |
